Laboratory results published in PubChem BioAssay (NCI).
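Compound exposure: 48 hours, 5 concentrations, 96-well plates. The concentration for 50% growth inhibition is given as GI50. Definition used: TGI = concentration required for complete inhibition of growth.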

Tests used:
Test in all cases: DTP human tumour cell line panel, 48 h
OVCAR-3 ovarian = system: OVCAR-3 ovarian
CCRF-CEM leukemia = system: CCRF-CEM leukemia
U251 CNS = system: U251 CNS
OVCAR-4 ovarian = system: OVCAR-4 ovarian
KM12 colon = system: KM12 colon
SK-MEL-2 melanoma = system: SK-MEL-2 melanoma
COLO 205 colon = system: COLO 205 colon
SK-OV-3 ovarian = system: SK-OV-3 ovarian
SN12C renal = system: SN12C renal
SK-MEL-28 melanoma = system: SK-MEL-28 melanoma
A498 renal = system: A498 renal
HS 578T breast = system: HS 578T breast
SK-MEL-5 melanoma = system: SK-MEL-5 melanoma
SF-295 CNS = system: SF-295 CNS
RPMI-8226 leukemia = system: RPMI-8226 leukemia
MALME-3M melanoma = system: MALME-3M melanoma
M14 melanoma = system: M14 melanoma
SF-539 CNS = system: SF-539 CNS
OVCAR-8 ovarian = system: OVCAR-8 ovarian
T-47D breast = system: T-47D breast
EKVX NSCLC = system: EKVX NSCLC
LOX IMVI melanoma = system: LOX IMVI melanoma
786-0 renal = system: 786-0 renal
SW-620 colon = system: SW-620 colon
UACC-62 melanoma = system: UACC-62 melanoma
RXF 393 renal = system: RXF 393 renal
A549 NSCLC = system: A549 NSCLC
HOP-92 NSCLC = system: HOP-92 NSCLC
NCI-H23 lung = system: NCI-H23 lung
SNB-75 CNS = system: SNB-75 CNS
HCT-15 colon = system: HCT-15 colon
ACHN renal = system: ACHN renal
NCI-H460 lung = system: NCI-H460 lung
SNB-19 CNS = system: SNB-19 CNS
TK-10 renal = system: TK-10 renal
HCT-116 colon = system: HCT-116 colon
MDA-MB-435 = system: MDA-MB-435
NCI/ADR-RES ovarian = system: NCI/ADR-RES ovarian
UO-31 renal = system: UO-31 renal
DU-145 prostate = system: DU-145 prostate
HOP-62 NSCLC = system: HOP-62 NSCLC
IGROV1 ovarian = system: IGROV1 ovarian
NCI-H226 lung = system: NCI-H226 lung
OVCAR-5 ovarian = system: OVCAR-5 ovarian
UACC-257 melanoma = system: UACC-257 melanoma
MOLT-4 leukemia = system: MOLT-4 leukemia
MCF7 breast = system: MCF7 breast
HT29 colon = system: HT29 colon
SF-268 CNS = system: SF-268 CNS
PC-3 prostate = system: PC-3 prostate
CAKI-1 renal = system: CAKI-1 renal
BT-549 breast = system: BT-549 breast
K-562 leukemia = system: K-562 leukemia
MDA-MB-231 breast = system: MDA-MB-231 breast
SR leukemia = system: SR leukemia
HL-60(TB) leukemia = system: HL-60(TB) leukemia

CCN(CC)c1ccc(N=O)cc1
GI50 (OVCAR-3 ovarian): 1.97 µM
TGI (OVCAR-3 ovarian): 4.61 µM
GI50 (CCRF-CEM leukemia): 0.937 µM
TGI (CCRF-CEM leukemia): 13 µM
GI50 (U251 CNS): 1.14 µM
TGI (U251 CNS): 2.73 µM
GI50 (OVCAR-4 ovarian): 3.26 µM
TGI (OVCAR-4 ovarian): 13.5 µM
GI50 (KM12 colon): 3.39 µM
TGI (KM12 colon): 13.1 µM
GI50 (SK-MEL-2 melanoma): 8.39 µM
TGI (SK-MEL-2 melanoma): 22 µM
GI50 (COLO 205 colon): 1.98 µM
TGI (COLO 205 colon): 5.46 µM
GI50 (SK-OV-3 ovarian): 12.4 µM
TGI (SK-OV-3 ovarian): 29.3 µM
GI50 (SN12C renal): 4.24 µM
TGI (SN12C renal): 17.2 µM
GI50 (SK-MEL-28 melanoma): 10.7 µM
TGI (SK-MEL-28 melanoma): 23 µM
GI50 (A498 renal): 13.6 µM
TGI (A498 renal): 38.5 µM
GI50 (HS 578T breast): 10.2 µM
TGI (HS 578T breast): > 100 µM
GI50 (SK-MEL-5 melanoma): 2.47 µM
TGI (SK-MEL-5 melanoma): 7.38 µM
GI50 (SF-295 CNS): 4.87 µM
TGI (SF-295 CNS): 20.5 µM
GI50 (RPMI-8226 leukemia): 2.09 µM
TGI (RPMI-8226 leukemia): 6.33 µM
GI50 (MALME-3M melanoma): 1.59 µM
TGI (MALME-3M melanoma): 4.46 µM
GI50 (M14 melanoma): 3.47 µM
TGI (M14 melanoma): 14.4 µM
GI50 (SF-539 CNS): 2.96 µM
TGI (SF-539 CNS): 10.1 µM
GI50 (OVCAR-8 ovarian): 3.14 µM
TGI (OVCAR-8 ovarian): 12.3 µM
GI50 (T-47D breast): 2.89 µM
TGI (T-47D breast): 16.7 µM
GI50 (EKVX NSCLC): 10.2 µM
TGI (EKVX NSCLC): 26.8 µM
GI50 (LOX IMVI melanoma): 1.67 µM
TGI (LOX IMVI melanoma): 3.53 µM
GI50 (786-0 renal): 7.46 µM
TGI (786-0 renal): 23.6 µM
GI50 (SW-620 colon): 1.71 µM
TGI (SW-620 colon): 5.53 µM
GI50 (UACC-62 melanoma): 6.66 µM
TGI (UACC-62 melanoma): 23.5 µM
GI50 (RXF 393 renal): 2.46 µM
TGI (RXF 393 renal): 7.45 µM
GI50 (A549 NSCLC): 2.07 µM
TGI (A549 NSCLC): 5.56 µM
GI50 (HOP-92 NSCLC): 2.18 µM
TGI (HOP-92 NSCLC): 7.73 µM
GI50 (NCI-H23 lung): 1.95 µM
TGI (NCI-H23 lung): 5.32 µM
GI50 (SNB-75 CNS): 3.47 µM
TGI (SNB-75 CNS): 16.9 µM
GI50 (HCT-15 colon): 2.26 µM
TGI (HCT-15 colon): 12.8 µM
GI50 (ACHN renal): 2.61 µM
TGI (ACHN renal): 11.1 µM
GI50 (NCI-H460 lung): 5.12 µM
TGI (NCI-H460 lung): 34.2 µM
GI50 (SNB-19 CNS): 12.8 µM
TGI (SNB-19 CNS): 29.9 µM
GI50 (TK-10 renal): 2.79 µM
TGI (TK-10 renal): 10.8 µM
GI50 (HCT-116 colon): 1.82 µM
TGI (HCT-116 colon): 4.71 µM
GI50 (MDA-MB-435): 2.72 µM
TGI (MDA-MB-435): 11.9 µM
GI50 (NCI/ADR-RES ovarian): 2.33 µM
TGI (NCI/ADR-RES ovarian): 7 µM
GI50 (UO-31 renal): 1.21 µM
TGI (UO-31 renal): 3.81 µM
GI50 (DU-145 prostate): 6.43 µM
TGI (DU-145 prostate): 19.9 µM
GI50 (HOP-62 NSCLC): 2.78 µM
TGI (HOP-62 NSCLC): 11.8 µM
GI50 (IGROV1 ovarian): 2.05 µM
TGI (IGROV1 ovarian): 6.41 µM
GI50 (NCI-H226 lung): 13.6 µM
TGI (NCI-H226 lung): 38.4 µM
GI50 (OVCAR-5 ovarian): 3.51 µM
TGI (OVCAR-5 ovarian): 14.3 µM
GI50 (UACC-257 melanoma): 1.82 µM
TGI (UACC-257 melanoma): 4.15 µM
GI50 (MOLT-4 leukemia): 3.34 µM
TGI (MOLT-4 leukemia): 30.1 µM
GI50 (MCF7 breast): 2.76 µM
TGI (MCF7 breast): 11.8 µM
GI50 (HT29 colon): 1.27 µM
TGI (HT29 colon): 4.3 µM
GI50 (SF-268 CNS): 5.53 µM
TGI (SF-268 CNS): 20.9 µM
GI50 (PC-3 prostate): 3.14 µM
TGI (PC-3 prostate): 12.1 µM
GI50 (CAKI-1 renal): 1.29 µM
TGI (CAKI-1 renal): 3.83 µM
GI50 (BT-549 breast): 16.6 µM
TGI (BT-549 breast): 30.5 µM
GI50 (K-562 leukemia): 2.23 µM
TGI (K-562 leukemia): 15.9 µM
GI50 (MDA-MB-231 breast): 5.29 µM
TGI (MDA-MB-231 breast): 20.9 µM
GI50 (SR leukemia): 3.74 µM
TGI (SR leukemia): 46.2 µM
GI50 (HL-60(TB) leukemia): 2.85 µM
TGI (HL-60(TB) leukemia): 13.6 µM
